The numbers were not newly measured in patent EP0743854B1, “ANTI-TUMOUR MEDICAL P[…] THE BASIS OF C[…] THE METHOD OF ITS PRODUCTION” (PLIVA, pharmaceutical industry incorporated, priority 1994, dated 1995), which cites them from elsewhere.

The conditions of the data set: lyophylized injection dissolved in water and other aqueous solutions (sodium chloride, glucose, dextrose).

Take `N.N.O=C([O-])C1(C(=O)[O-])CCC1.[Pt+2]` [carboplatin, cis-diammine-1,1-cyclobutanedicarboxylate platinum (II)]: the stability of solution entry is “stable and therefore therapeutically useful for only few hours, at most few days under lower temperature”.
